Where two headings read alike, the source gives them in different places.
Assays:
A549 lung cancer cells [1] = conditions: cited from earlier work
[2] = tested on: HT-29 colorectal cancer cells; conditions: cited from earlier work
[3] = tested on: MCF-7 breast cancer cells; conditions: cited from earlier work
[4] = tested on: NCI-H460 lung cancer cells; conditions: cited from earlier work
[5] = tested on: HCT-116 colorectal cancer cells; conditions: cited from earlier work
[6] = tested on: NCI-H23 lung cancer cells; conditions: cited from earlier work
[7] = tested on: MDA-MB-231 breast cancer cells; conditions: cited from earlier work
[8] = tested on: SNB-78 central nervous system cancer cells; assay: antitumor activity, sulforhodamine B cell growth assay, SNB-78; format: cell-based; conditions: SNB-78 central nervous system cancer cells; read-out: antitumor activity GI50 value: 50% growth inhibitory concentration
Description: (§1) The THIQ compound containing a macrocyclic structure of the present invention was administered to various cancer cell lines, and the antitumor activity (Go value) was observed. Specifically, verification was performed according to the literature (Yamori, T.; Matsunaga, A.; Sato, S.; Yamazaki, K.; Komi, A.; Ishizu, K. et al. Cancer Res. 1999, 59, 4042) by the following procedure.
(§2) Cells were plated at an appropriate density in a 96-well plate in RPMI 1640 together with 5% fetal bovine serum, and adhered overnight. The cells were exposed to a drug for 48 hours. Then, according to the sulforhodamine B assay described by Skehan et al (Skehan P., Storeng R., Scudiero D., Monks A., McMahon J., Vistica D., Warren J. T., Bokesch H., Kenney S., Boyd M. R. J Natl. Cancer Inst, 1990, 82, 1107-1112), the cell growth rate was measured. The absorbance of the control well (C) and the test well (T) was measured at 525 nm. In addition, the time at which the drug was added was set as time 0, and the absorbance for the test well (T0) was measured. Using these measured values, the cell growth inhibitory effect (% growth=PG) was calculated by the following formula at each concentration of the drug.
(§3) (T<T0): PG=100×[(T−T0)/T]
(§4) The PG values determined above for each cell line were plotted against the concentration (logarithm) on a semi-logarithmic graph, and summarized for each visceral cancer. Concentrations at which the dose-response curve of each cell line crossed the horizontal line of PG=50%, 0%, or −50% were calculated. These concentrations were defined as Log GI50, Log TGI, and Log LC50. Actually, using two data points of the drug concentration before and after crossing each horizontal line, the drug concentration (logarithmic value) at the intersection of the straight line connecting the two points and the horizontal line for each PG was calculated.

DMS114 lung cancer cells = assay: antitumor activity, sulforhodamine B cell growth assay, DMS114; format: cell-based; conditions: DMS114 lung cancer cells; read-out: antitumor activity GI50 value: 50% growth inhibitory concentration
Description: as §1, §2, §3, §4

[9] = tested on: HBC-4 breast cancer cells; assay: antitumor activity, sulforhodamine B cell growth assay, HBC-4; format: cell-based; conditions: HBC-4 breast cancer cells; read-out: antitumor activity GI50 value: 50% growth inhibitory concentration
Description: as §1, §2, §3, §4

[10] = tested on: SF-539 central nervous system cancer cells; assay: antitumor activity, sulforhodamine B cell growth assay, SF-539; format: cell-based; conditions: SF-539 central nervous system cancer cells; read-out: antitumor activity GI50 value: 50% growth inhibitory concentration
Description: as §1, §2, §3, §4

[11] = tested on: HT-29 colorectal cancer cells; assay: antitumor activity, sulforhodamine B cell growth assay, HT-29; format: cell-based; conditions: HT-29 colorectal cancer cells; read-out: antitumor activity GI50 value: 50% growth inhibitory concentration
Description: as §1, §2, §3, §4

[12] = tested on: SF-295 central nervous system cancer cells; assay: antitumor activity, sulforhodamine B cell growth assay, SF-295; format: cell-based; conditions: SF-295 central nervous system cancer cells; read-out: antitumor activity GI50 value: 50% growth inhibitory concentration
Description: as §1, §2, §3, §4

[13] = tested on: SNB-75 central nervous system cancer cells; assay: antitumor activity, sulforhodamine B cell growth assay, SNB-75; format: cell-based; conditions: SNB-75 central nervous system cancer cells; read-out: antitumor activity GI50 value: 50% growth inhibitory concentration
Description: as §1, §2, §3, §4

[14] = tested on: BSY-1 breast cancer cells; assay: antitumor activity, sulforhodamine B cell growth assay, BSY-1; format: cell-based; conditions: BSY-1 breast cancer cells; read-out: antitumor activity GI50 value: 50% growth inhibitory concentration
Description: as §1, §2, §3, §4

[15] = tested on: MKN1 gastric cancer cells; assay: antitumor activity, sulforhodamine B cell growth assay, MKN1; format: cell-based; conditions: MKN1 gastric cancer cells; read-out: antitumor activity GI50 value: 50% growth inhibitory concentration
Description: as §1, §2, §3, §4

[16] = tested on: HBC-5 breast cancer cells; assay: antitumor activity, sulforhodamine B cell growth assay, HBC-5; format: cell-based; conditions: HBC-5 breast cancer cells; read-out: antitumor activity GI50 value: 50% growth inhibitory concentration
Description: as §1, §2, §3, §4

SK-OV-3 cancer cells = assay: antitumor activity, sulforhodamine B cell growth assay, SK-OV-3; format: cell-based; conditions: SK-OV-3 cervical cancer cells; read-out: antitumor activity GI50 value: 50% growth inhibitory concentration
Description: as §1, §2, §3, §4

[17] = tested on: U251 central nervous system cancer cells; assay: antitumor activity, sulforhodamine B cell growth assay, U251; format: cell-based; conditions: U251 central nervous system cancer cells; read-out: antitumor activity GI50 value: 50% growth inhibitory concentration
Description: as §1, §2, §3, §4

[18] = tested on: St-4 gastric cancer cells; assay: antitumor activity, sulforhodamine B cell growth assay, St-4; format: cell-based; conditions: SI-4 gastric cancer cells; read-out: antitumor activity GI50 value: 50% growth inhibitory concentration
Description: as §1, §2, §3, §4

[19] = tested on: MKN-A gastric cancer cells; assay: antitumor activity, sulforhodamine B cell growth assay, MKN-A; format: cell-based; conditions: MKN-A gastric cancer cells; read-out: antitumor activity GI50 value: 50% growth inhibitory concentration
Description: as §1, §2, §3, §4

[20] = tested on: KM-12 colorectal cancer cells; assay: antitumor activity, sulforhodamine B cell growth assay, KM-12; format: cell-based; conditions: KM-12 colorectal cancer cells; read-out: antitumor activity GI50 value: 50% growth inhibitory concentration
Description: as §1, §2, §3, §4

[21] = tested on: DU-145 prostate cancer cells; assay: antitumor activity, sulforhodamine B cell growth assay, DU-145; format: cell-based; conditions: DU-145 prostate cancer cells; read-out: antitumor activity GI50 value: 50% growth inhibitory concentration
Description: as §1, §2, §3, §4

[22] = tested on: HCT-15 colorectal cancer cells; assay: antitumor activity, sulforhodamine B cell growth assay, HCT-15; format: cell-based; conditions: HCT-15 colorectal cancer cells; read-out: antitumor activity GI50 value: 50% growth inhibitory concentration
Description: as §1, §2, §3, §4

[23] = tested on: MDA-MB-231 breast cancer cells; assay: antitumor activity, sulforhodamine B cell growth assay, MDA-MB-231; format: cell-based; conditions: MDA-MB-231 breast cancer cells; read-out: antitumor activity GI50 value: 50% growth inhibitory concentration
Description: as §1, §2, §3, §4

[24] = tested on: NCI-H460 lung cancer cells; assay: antitumor activity, sulforhodamine B cell growth assay, NCI-H460; format: cell-based; conditions: NCl--H460 lung cancer cells; read-out: antitumor activity GI50 value: 50% growth inhibitory concentration
Description: as §1, §2, §3, §4

[25] = tested on: MKN-B gastric cancer cells; assay: antitumor activity, sulforhodamine B cell growth assay, MKN-B; format: cell-based; conditions: MKN-B gastric cancer cells; read-out: antitumor activity GI50 value: 50% growth inhibitory concentration
Description: as §1, §2, §3, §4

ACHN kidney cancer cells = assay: antitumor activity, sulforhodamine B cell growth assay, ACHN; format: cell-based; conditions: ACHN kidney cancer cells; read-out: antitumor activity GI50 value: 50% growth inhibitory concentration
Description: as §1, §2, §3, §4

A549 lung cancer cells [26] = assay: antitumor activity, sulforhodamine B cell growth assay, A549; format: cell-based; conditions: A549 lung cancer cells; read-out: antitumor activity GI50 value: 50% growth inhibitory concentration
Description: as §1, §2, §3, §4

[27] = tested on: NCI-H226 lung cancer cells; assay: antitumor activity, sulforhodamine B cell growth assay, NCI-H226; format: cell-based; conditions: NCl-H226 lung cancer cells; read-out: antitumor activity GI50 value: 50% growth inhibitory concentration
Description: as §1, §2, §3, §4

[28] = tested on: HCT-116 colorectal cancer cells; assay: antitumor activity, sulforhodamine B cell growth assay, HCT-116; format: cell-based; conditions: HCT-116 colorectal cancer cells; read-out: antitumor activity GI50 value: 50% growth inhibitory concentration
Description: as §1, §2, §3, §4

DMS273 lung cancer cells = assay: antitumor activity, sulforhodamine B cell growth assay, DMS273; format: cell-based; conditions: DMS273 lung cancer cells; read-out: antitumor activity GI50 value: 50% growth inhibitory concentration
Description: as §1, §2, §3, §4

LOX-IMVI melanoma cells = assay: antitumor activity, sulforhodamine B cell growth assay, LOX-IMVI; format: cell-based; conditions: LOX-IMVI melanoma cells; read-out: antitumor activity GI50 value: 50% growth inhibitory concentration
Description: as §1, §2, §3, §4

[29] = tested on: NCI-H522 lung cancer cells; assay: antitumor activity, sulforhodamine B cell growth assay, NCI-H522; format: cell-based; conditions: NCl-H522 lung cancer cells; read-out: antitumor activity GI50 value: 50% growth inhibitory concentration
Description: as §1, §2, §3, §4

[30] = tested on: MKN45 gastric cancer cells; assay: antitumor activity, sulforhodamine B cell growth assay, MKN45; format: cell-based; conditions: MKN45 gastric cancer cells; read-out: antitumor activity GI50 value: 50% growth inhibitory concentration
Description: as §1, §2, §3, §4

[31] = tested on: HCC2998 colorectal cancer cells; assay: antitumor activity, sulforhodamine B cell growth assay, HCC2998; format: cell-based; conditions: HCC2998 colorectal cancer cells; read-out: antitumor activity GI50 value: 50% growth inhibitory concentration
Description: as §1, §2, §3, §4

SMILES: COc1cc2c(cc1O)CCN[C@]21CS[C@@H]2c3c(OC(C)=O)c(C)c4c(c3[C@H](COC1=O)N1[C@@H]2[C@H]2c3c(cc(C)c(OC)c3O)C[C@@H]([C@@H]1O)N2C)OCO4 [Ecteinascidin 743, reference compound]
- GI50 (A549 lung cancer cells [1]; A549, reference values from literature (Leal et al. Br. J Pharmacol, 2010), read-out: GI50 value: 50% growth inhibitory concentration): 10.4 nM
- GI50 ([2]; HT-29, reference values from literature (Leal et al. Br. J Pharmacol, 2010), read-out: GI50 value: 50% growth inhibitory concentration): 9.8 nM
- GI50 ([3]; MCF-7, reference values from literature (Leal et al. Br. J Pharmacol, 2010), read-out: GI50 value: 50% growth inhibitory concentration): 2.6 nM
- GI50 ([4]; NCI-H460, reference values from literature (Leal et al. Br. J Pharmacol, 2010), read-out: GI50 value: 50% growth inhibitory concentration): 1.8 nM
- GI50 ([5]; HCT-116, reference values from literature (Leal et al. Br. J Pharmacol, 2010), read-out: GI50 value: 50% growth inhibitory concentration): 4.9 nM
- GI50 ([6]; NCI-H23, reference values from literature (Leal et al. Br. J Pharmacol, 2010), read-out: GI50 value: 50% growth inhibitory concentration): 2.1 nM
- GI50 ([7]; MDA-MB-231, reference values from literature (Leal et al. Br. J Pharmacol, 2010), read-out: GI50 value: 50% growth inhibitory concentration): 3.9 nM

SMILES: COc1c(C)cc2c(c1C)[C@H]1N(C)[C@@](C)(C2)C(C)N2C1(C)[C@@H]1CCC3(CCCC4=C3Cc3ccc(C)cc34)C(=O)OC[C@@]2(C)c2c3c(c(C)c(C)c21)OCO3 (stereo partly shown) [drawing 159]
- GI50 (A549 lung cancer cells [1]; A549 lung cancer cells, comparative value based on the literature, read-out: antitumor activity GI50 value: 50% growth inhibitory concentration): 1.3 nM
- GI50 ([2]; HT-29 colorectal cancer cells, comparative value based on the literature, read-out: antitumor activity GI50 value: 50% growth inhibitory concentration): 2.4 nM
- GI50 ([3]; MCF-7 breast cancer cells, comparative value based on the literature, read-out: antitumor activity GI50 value: 50% growth inhibitory concentration): 1.7 nM
- GI50 ([4]; NCl--H460 lung cancer cells, comparative value based on the literature, read-out: antitumor activity GI50 value: 50% growth inhibitory concentration): 1.5 nM
- GI50 ([5]; HCT-116 colorectal cancer cells, comparative value based on the literature, read-out: antitumor activity GI50 value: 50% growth inhibitory concentration): 6.4 nM
- GI50 ([6]; NCl-H23 lung cancer cells, comparative value based on the literature, read-out: antitumor activity GI50 value: 50% growth inhibitory concentration): 5.3 nM
- GI50 ([7]; MDA-MB-231 breast cancer cells, comparative value based on the literature, read-out: antitumor activity GI50 value: 50% growth inhibitory concentration): 3.4 nM

SMILES: CC1=C(C)C(=O)C2=C(CC3(C)[C@H]4c5c(cc(C)c(C)c5C)C[C@@](C)(C(C)N3[C@H]2CNC(=O)C(C)C)N4C)C1=O (stereo partly shown) [drawing 164]
- GI50 [8]: 63 nM
- GI50 (DMS114 lung cancer cells): 35 nM
- GI50 [9]: 59 nM
- GI50 [10]: 180 nM
- GI50 [11]: 190 nM
- GI50 [12]: 500 nM
- GI50 [13]: 150 nM
- GI50 [14]: 34 nM
- GI50 [15]: 52 nM
- GI50 [16]: 62 nM
- GI50 (SK-OV-3 cancer cells): 540 nM
- GI50 [17]: 370 nM
- GI50 [18]: 430 nM
- GI50 [19]: 250 nM
- GI50 [20]: 530 nM
- GI50 [21]: 490 nM
- GI50 [22]: 390 nM
- GI50 [23]: 130 nM
- GI50 [24]: 400 nM
- GI50 [25]: 170 nM
- GI50 (ACHN kidney cancer cells): 320 nM
- GI50 (A549 lung cancer cells [26]): 1600 nM
- GI50 [27]: 310 nM
- GI50 [28]: 290 nM
- GI50 (DMS273 lung cancer cells): 270 nM
- GI50 (LOX-IMVI melanoma cells): 61 nM
- GI50 [29]: 43 nM
- GI50 [30]: 300 nM
- GI50 [31]: 350 nM

From patent US20240197726A1, “NOVEL TETRAHYDROISOQUINOLINE ALKALOID COMPOUND CONTAINING MACROCYCLE” (THE UNIVERSITY OF TOKYO, priority 2021, published 2024)
